Values joined by “and” are separate entries in the source; they are usually repeats but may differ in a detail not shown here. Equal values may be shown once. Toxic doses and inconclusive results are not listed. The calls were made as follows: active = survival T/C of 150% or more; inactive = T/C below 125% in these data.
System: P388 leukemia ip, CD2F1 mice, survival T/C
Test: NCI In Vivo Anticancer Drug Screen. Data for tumor model P388 Leukemia (intraperitoneal) in CD2F1 (CDF1) mice
Conditions: endpoint: median survival time, higher = longer survival
Method in brief: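 Mice carrying the transplanted tumor received test compound or vehicle. Survival was recorded in each group, and the value is the treated-group measurement divided by that of the vehicle-treated control group.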

[1] = dose: 50.0 mg/kg/injection, schedule: Q01DX005 (ip), vehicle: saline with Tween-80
[2] = dose: 100.0 mg/kg/injection, schedule: Q01DX005 (ip), vehicle: saline with Tween-80
[3] = dose: 200.0 mg/kg/injection, schedule: Q01DX005 (ip), vehicle: saline with Tween-80
[4] = dose: 50.0 mg/kg/injection, schedule: Q01DX005 (ip), vehicle: Klucel (hydroxypropylcellulose) (HPC)
[5] = dose: 100.0 mg/kg/injection, schedule: Q01DX005 (ip), vehicle: Klucel (hydroxypropylcellulose) (HPC)
[6] = dose: 200.0 mg/kg/injection, schedule: Q01DX005 (ip), vehicle: Klucel (hydroxypropylcellulose) (HPC)
[7] = dose: 25.0 mg/kg/injection, schedule: Q01DX005 (ip), vehicle: saline with Tween-80

Measured: T/C

CCOC(=O)C(C(=O)OCC)=C1C(=O)Nc2ccccc21
inactive: dose: 100.0 mg/kg/injection, schedule: Q04DX002 (ip), vehicle: Klucel (hydroxypropylcellulose) (HPC) 106 % of control | dose: 200.0 mg/kg/injection, schedule: Q04DX002 (ip), vehicle: Klucel (hydroxypropylcellulose) (HPC) 106 % of control | dose: 400.0 mg/kg/injection, schedule: Q04DX002 (ip), vehicle: Klucel (hydroxypropylcellulose) (HPC) 109 % of control

O=C1CN(CCN2CCOCC2)CC(=O)N2Cc3ccccc3CN12
inactive: [1] 108 % of control | [2] 98 % of control | [3] 101 % of control

COC1/C=C/OC2(C)Oc3c(C)c(O)c4c(c3C2=O)C(=O)C=C(NC(=O)/C(C)=C\C=C\C(C)C(OC=O)C(C)C(O)C(C)C(OC(C)=O)C1C)C4=O (centres undefined)
inactive: dose: 50.0 mg/kg/injection, schedule: Q01DX009 (ip), vehicle: saline with Tween-80 100 % of control | dose: 100.0 mg/kg/injection, schedule: Q01DX009 (ip), vehicle: saline with Tween-80 92 % of control | dose: 200.0 mg/kg/injection, schedule: Q01DX009 (ip), vehicle: saline with Tween-80 91 % of control

CCCCCCCCCCCCCCCCCCCCC(C(=O)OCC)S(=O)(=O)O (centres undefined)
inactive: dose: 50.0 mg/kg/injection, schedule: Q01DX009 (ip), vehicle: Klucel (hydroxypropylcellulose) (HPC) 116 % of control | dose: 100.0 mg/kg/injection, schedule: Q01DX009 (ip), vehicle: Klucel (hydroxypropylcellulose) (HPC) 111 % of control

O=C(Nc1ccc(Sc2ccc(N=Nc3c(O)c(S(=O)(=O)O)cc4cc(S(=O)(=O)O)ccc34)cc2)cc1)c1ccc(N=Nc2c(O)ccc3c(S(=O)(=O)O)cc(S(=O)(=O)O)cc23)cc1
inactive: [4] 102 % of control | [5] 97 % of control | [6] 109 % of control

O=C1C(=Cc2ccccc2O)C(=O)N(c2ccccc2)C(=S)N1c1ccccc1
inactive: [4] 100 % of control | [5] 100 % of control | [6] 100 % of control

CCN(CC)CCOC(=O)c1cc2cc3cc(C(=O)OCCN(CC)CC)c(=O)oc3c(C)c2oc1=O
inactive: dose: 50.0 mg/kg/injection, schedule: Q01DX005 (ip), vehicle: saline 113 % of control | dose: 100.0 mg/kg/injection, schedule: Q01DX005 (ip), vehicle: saline 114 % of control | dose: 200.0 mg/kg/injection, schedule: Q01DX005 (ip), vehicle: saline 107 % of control

OC(C/C=C/c1ccccc1)(c1ccccc1)c1ccccc1
inactive: dose: 50.0 mg/kg/injection, schedule: Q01DX009 (ip), vehicle: saline 109 % of control | dose: 100.0 mg/kg/injection, schedule: Q01DX009 (ip), vehicle: saline 100 % of control | dose: 200.0 mg/kg/injection, schedule: Q01DX009 (ip), vehicle: saline 91 % of control

O=C(N=Nc1c(O)[nH]c2c(Cl)cc(Cl)cc12)C(=O)Nc1cccc(C(F)(F)F)c1
inactive: dose: 6.25 mg/kg/injection, schedule: Q01DX009 (ip), vehicle: saline with Tween-80 95 % of control | dose: 12.5 mg/kg/injection, schedule: Q01DX009 (ip), vehicle: saline with Tween-80 93 % of control | dose: 25.0 mg/kg/injection, schedule: Q01DX009 (ip), vehicle: saline with Tween-80 95 % of control

COc1ccc2c(c1)C(NCCCCCCNc1cc(C)[n+](C)c3ccc(OC)cc13)=CC(C)N2C (centres undefined)
inactive: [7] 113 % of control | [1] 118 % of control

C=C1CC(NCC(=O)OCC)=C(O)C1=O
inactive: dose: 25.0 mg/kg/injection, schedule: Q01DX005 (ip), vehicle: Klucel (hydroxypropylcellulose) (HPC) 93 % of control | [4] 90 % of control | [5] 94 % of control

O=c1[nH]c2c(ccc3ccc[n+]([O-])c32)c2c1CCC2
inactive: dose: 100.0 mg/kg/injection, schedule: Q04DX002 (ip), vehicle: saline 100 % of control | dose: 200.0 mg/kg/injection, schedule: Q04DX002 (ip), vehicle: saline 90 % of control | dose: 400.0 mg/kg/injection, schedule: Q04DX002 (ip), vehicle: saline 100 % of control

O=C(O)CC(CC(=O)O)c1ccc2c(c1)OCO2
inactive: [4] 99 % of control | [5] 109 % of control | [6] 99 % of control

CCCCCN(CCCCC)CC(O)c1c(Cl)ccc2ccccc12 (centres undefined)
inactive: dose: 12.5 mg/kg/injection, schedule: Q01DX005 (ip), vehicle: saline with Tween-80 106 % of control | [7] 103 % of control | [1] 103 % of control and 97 % of control | [2] 106 % of control | [3] 112 % of control

C/C(=N\NC(=S)Nc1nccs1)c1ccccn1
inactive: dose: 100.0 mg/kg/injection, schedule: Q04DX003 (ip), vehicle: Klucel (hydroxypropylcellulose) (HPC) 99 % of control | dose: 200.0 mg/kg/injection, schedule: Q04DX003 (ip), vehicle: Klucel (hydroxypropylcellulose) (HPC) 105 % of control | dose: 400.0 mg/kg/injection, schedule: Q04DX003 (ip), vehicle: Klucel (hydroxypropylcellulose) (HPC) 96 % of control

O=C1N=C2SCCCN2C1(c1ccccc1)c1ccccc1
inactive: dose: 60.0 mg/kg/injection, schedule: Q01DX005 (ip), vehicle: saline with Tween-80 97 % of control | dose: 120.0 mg/kg/injection, schedule: Q01DX005 (ip), vehicle: saline with Tween-80 92 % of control | dose: 240.0 mg/kg/injection, schedule: Q01DX005 (ip), vehicle: saline with Tween-80 100 % of control

Cc1ccc(S(=O)(=O)N/N=C/c2c(Cl)n(C(=O)c3ccccc3F)c3ccccc23)cc1
inactive: dose: 50.0 mg/kg/injection, schedule: Q01DX001 (ip), vehicle: Klucel (hydroxypropylcellulose) (HPC) 93 % of control | dose: 100.0 mg/kg/injection, schedule: Q01DX001 (ip), vehicle: Klucel (hydroxypropylcellulose) (HPC) 95 % of control | dose: 200.0 mg/kg/injection, schedule: Q01DX001 (ip), vehicle: Klucel (hydroxypropylcellulose) (HPC) 90 % of control | dose: 400.0 mg/kg/injection, schedule: Q01DX001 (ip), vehicle: Klucel (hydroxypropylcellulose) (HPC) 86 % of control

CCCCCOC(=S)S
inactive: dose: 9.37 mg/kg/injection, schedule: Q01DX009 (ip), vehicle: saline 109 % of control | dose: 9.37 mg/kg/injection, schedule: Q04DX003 (ip), vehicle: saline with Tween-80 95 % of control | dose: 18.75 mg/kg/injection, schedule: Q01DX009 (ip), vehicle: saline 100 % of control | dose: 18.75 mg/kg/injection, schedule: Q04DX003 (ip), vehicle: saline with Tween-80 109 % of control | dose: 37.5 mg/kg/injection, schedule: Q01DX009 (ip), vehicle: saline 100 % of control | dose: 37.5 mg/kg/injection, schedule: Q04DX003 (ip), vehicle: saline with Tween-80 104 % of control

C/C=C1\CN(C)CCC23C(=O)CC1C1COC(O)C(=O)N(c4ccccc42)C13 (centres undefined)
inactive: dose: 1.0 mg/kg/injection, schedule: Q01DX009 (ip), vehicle: Klucel (hydroxypropylcellulose) (HPC) 103 % of control | dose: 2.0 mg/kg/injection, schedule: Q01DX009 (ip), vehicle: Klucel (hydroxypropylcellulose) (HPC) 110 % of control | dose: 4.0 mg/kg/injection, schedule: Q01DX009 (ip), vehicle: Klucel (hydroxypropylcellulose) (HPC) 118 % of control | dose: 5.0 mg/kg/injection, schedule: Q01DX009 (ip), vehicle: saline 97 % of control | dose: 8.0 mg/kg/injection, schedule: Q01DX009 (ip), vehicle: Klucel (hydroxypropylcellulose) (HPC) 101 % of control | dose: 10.0 mg/kg/injection, schedule: Q01DX009 (ip), vehicle: saline 99 % of control | dose: 16.0 mg/kg/injection, schedule: Q01DX009 (ip), vehicle: Klucel (hydroxypropylcellulose) (HPC) 110 % of control | dose: 20.0 mg/kg/injection, schedule: Q01DX009 (ip), vehicle: saline 101 % of control

CC(C)(C)[Si]1(C(C)(C)C)N([Si](C)(C)C)N1[Si](C)(C)C (centres undefined)
inactive: dose: 60.0 mg/kg/injection, schedule: Q01DX005 (ip), vehicle: saline 106 % of control | dose: 120.0 mg/kg/injection, schedule: Q01DX005 (ip), vehicle: saline 100 % of control | dose: 240.0 mg/kg/injection, schedule: Q01DX005 (ip), vehicle: saline 105 % of control

— PubChem BioAssay AID330 (DTP/NCI, 2004)
